How the values were obtained:
Format in all cases: cell-based
[1] = molecular target: T1, hERG potassium channel (human Ether-à-go-go Related Gene) (Homo sapiens, UniProt Q12809, N588K); experiment: whole-cell patch-clamp, single concentration […]; details: read-out: % of control tail current at 300 nM
T1 construct: gene KCNH2; N588K hERG transiently expressed in HEK 293 cells

[2] = molecular target: T2, hERG potassium channel (human Ether-à-go-go Related Gene) (Homo sapiens, UniProt Q12809, F557L); experiment: whole-cell patch-clamp, single concentration […]; details: read-out: % of control tail current at 300 nM
T2 construct: gene KCNH2; F557L hERG transiently expressed in HEK 293 cells

[3] = molecular target: T3, hERG potassium channel (human Ether-à-go-go Related Gene) (Homo sapiens, UniProt Q12809, T623A); experiment: whole-cell patch-clamp, inward tail current in […] K+, […]; details: read-out: % of control tail current at 300 nM
T3 construct: gene KCNH2; T623A hERG transiently expressed in HEK 293 cells

[4] = molecular target: T4, hERG potassium channel (human Ether-à-go-go Related Gene) (Homo sapiens, UniProt Q12809, S624A); experiment: whole-cell patch-clamp, single concentration […]; details: read-out: % of control tail current at 300 nM
T4 construct: gene KCNH2; S624A hERG transiently expressed in HEK 293 cells

[5] = molecular target: T5, hERG potassium channel (human Ether-à-go-go Related Gene) (Homo sapiens, UniProt Q12809); experiment: whole-cell patch-clamp, hERG tail current, […] °C
T5 construct: gene KCNH2; wild-type hERG stably expressed in HEK 293 cells

Cc1ccc(C(=O)C2CCN(CCc3ccccc3)CC2)cc1 [E-4031-17] showed an activity at 0.3 µM [1] of 43.2%, an activity at 0.3 µM [2] of 57.9% and an activity at 0.3 µM [3] of 69.7%. For the same compound, the activity at 0.3 µM [4] was 57.2% and the IC50 [5] was 40.3 nM.

— article PMC10536391, “Inhibition of the hERG Potassium Channel by a Methanesulphonate-Free E-4031 Analogue” (Pharmaceuticals, 2023)
